Assays:
[1] = test system: PBMCs (monocyte TNF-α production); type: cell-based, human
[2] = test system: diluted whole blood (T cell IFN-γ production); experiment: Whole blood ELISpot, CD3/CD28-stimulated IFN-γ production (Example 2); type: cell-based, human
Protocol: Innate and adaptive immune function was assessed using ELISpot analysis by measurement of the production of IFN-γ and TNF-α in ex vivo-stimulated cells following overnight culture. Capture Ab precoated 96-well polyvinylidene difluoride-backed strip plates were used for single color enzymatic assays (ImmunoSpot; Cellular Technology [CTL], Cleveland, Ohio) for detection of human IFN-γ and TNF-α. ELISpot culture procedure was followed as directed using instructions from the ELISpot kit. Samples were run in duplicate for each test condition. Plates were prepared with stimulant and were incubated at 37° C. and 5% CO2 for 30 min prior to plating cells. Identical conditions were prepared for comparison of whole blood assay to PBMC assay, and culture media alone was used as a negative control. Combination of 500 ng/ml of anti-CD3 (clone HIT3a; BioLegend) with 2.5 μg/ml of anti-CD28 (clone CD28.2; BioLegend) Abs were used to induce IFN-γ, and 2.5 ng/ml LPS (from Salmonella abortus equi S-form, ALX-581-009; Enzo Life Sciences, Farmingdale, N.Y.) was used to induce TNF-α wells. Total well volume for all samples was 200 μl. PBMCs were plated into wells in quantities of 2.5×10^4 cells per well for IFN-γ and 2.5×10^3 cells per well for TNF-α. The relevant volume for 5×10^4 leukocytes of diluted whole blood (in culture media) was plated in each well based on complete blood counts performed in the clinical research core laboratory at Washington University. PBMCs and diluted whole blood were costimulated with and without recombinant human IL-7 (Escherichia coli-derived protein, product no. 207-IL; R&D Systems, Minneapolis, Minn.). ELISpot assays were incubated overnight for 18-22 h at 37° C. and 5% CO2 as previously described (29). […]
(§1) Samples were scanned, analyzed, and quality controlled for spot count, spot area, and TWI using a Cellular Technology series 6 ImmunoSpot Universal Analyzer with ImmunoSpot 7.0 professional software (Cellular Technology Analyzers, Shaker Heights, Ohio). […]
(§2) The number of cytokine-secreting cells present in each ELISpot well is referred to as spot-forming units (SFU) and is reported in two distinct ways. […] The number of lymphocytes in each well was determined based upon the absolute lymphocyte count as measured by the patients' complete blood count. For ELISpot studies involving PBMCs, flow cytometry was performed on the PBMC fraction, and the number of lymphocytes, monocytes, and residual neutrophils were determined. […] Samples were acquired on FACScan (Becton Dickenson, Franklin Lakes, N.J.) with a five-color modification (CyTek Biosciences, Fremont, Calif.) and analyzed using FlowJo 10.2 (FlowJo, Ashland, Oreg.) as previously described (28). […]

[3] = test system: diluted whole blood (myeloid cell TNF-α production); experiment: Whole blood ELISpot, LPS-stimulated TNF-α production (Example 2); type: cell-based, human
Protocol: Innate and adaptive immune function was assessed using ELISpot analysis by measurement of the production of IFN-γ and TNF-α in ex vivo-stimulated cells following overnight culture. Capture Ab precoated 96-well polyvinylidene difluoride-backed strip plates were used for single color enzymatic assays (ImmunoSpot; Cellular Technology [CTL], Cleveland, Ohio) for detection of human IFN-γ and TNF-α. ELISpot culture procedure was followed as directed using instructions from the ELISpot kit. Samples were run in duplicate for each test condition. Plates were prepared with stimulant and were incubated at 37° C. and 5% CO2 for 30 min prior to plating cells. Identical conditions were prepared for comparison of whole blood assay to PBMC assay, and culture media alone was used as a negative control. […] PBMCs were plated into wells in quantities of 2.5×10^4 cells per well for IFN-γ and 2.5×10^3 cells per well for TNF-α. […]
as §1, §2

[4] = test system: invasive fungal soft tissue infection (Trichosporon asahii, Fusarium, Saksenaea); experiment: IL-7 immunotherapy in a patient with intractable fungal wound sepsis (clinical course, lymphocyte count); type: in vivo, human
Protocol: Twenty-four hours later, the dosage was increased to 10 μg/kg and continued every 3-4 days for 7 doses. […] As illustrated by serial pictures of the wound, the most notable change following initiation of IL-7 was to slow the progression of the invasive soft tissue necrosis (FIG. 28B, green arrows).
In addition to decreased infectious spread and fungal proliferation, with improved wound healing and healthier-appearing tissue margins, clinical indicators of severity of disease improved within days of IL-7 treatment initiation with improvement of the fever curve, tachycardia, and tachypnea (FIG. 30). Laboratory evidence of resolution of the fungal invasion included progressive decreases in total white blood cell count and increasing absolute lymphocyte counts (FIG. 28A). The patient's absolute lymphocyte count increased >6-fold from a low of 600 lymphocytes/μL to >4000 lymphocytes/μL (upper limit of normal for absolute lymphocyte counts is 3500). Of note, the increase in the patient's absolute lymphocyte count was likely due to both the effect of IL-7 in inducing lymphocyte proliferation and to the resolution of the fungal infection.

[5] = test system: Trichosporon asahii and Saksenaea species; experiment: Tissue, wound, blood and bone cultures of the fungal wound sepsis patient; type: in vivo, human
Excerpt: They were aggressively treated with daily or alternating-day operative debridement, broad-spectrum parenteral and topical antibacterial and antifungal therapy. Antimicrobial therapy included ceftazidime, metronidazole, trimethoprim-sulfamethoxazole, micafungin, amphotericin B, and posaconazole (FIG. 29), as well as VERAFLO vac instillation of antimicrobials into the wound bed. The patient's polymicrobial soft tissue infection continued to advance and was accompanied by multisystem organ failure and shock. Over a 4-week period, they required debridement of >3000 cm^2 of skin, subcutaneous tissue, and muscle involving the entire perineum, bilateral thighs, buttocks, and circumferential abdominal wall (FIG. 28B).
Tissue histology also became negative for fungus at approximately the same time as tissue cultures (FIG. 28E).

[6] = test system: SARS-CoV-2-specific T cells; experiment: ELISpot, IFN-γ response to SARS-CoV-2 spike glycoprotein and nucleocapsid peptide pool (Example 5); type: in vivo, human; conditions: before vs after IL-7 therapy
fungal sepsis = conditions: in vivo; cited from earlier work
lymphopenia in COVID-19 = conditions: preliminary studies, reference 24; cited from earlier work

IL-7: recombinant human IL-7, immunoadjuvant and potent T cell activator; R&D Systems ex vivo, RevImmune for patients
mean increase in LPS-induced TNF-α-producing cells after IL-7 coincubation ([1]; COVID-19 patient PBMCs, LPS + IL-7, not statistically significant): 101%
effect of IL-7 on monocyte TNF-α production ([1]; COVID-19 patients, LPS vs LPS + IL-7, n=25): did not increase
effect of IL-7 on IFN-γ SFUs ([2]; healthy subjects and CINS patients): significantly increased
increase in IFN-γ spot numbers with IL-7 ([2]; sepsis nonsurvivors): 312%±240
increase in IFN-γ spot numbers with IL-7 ([2]; sepsis survivors): 102%±32
increase in the number of IFN-γ spots when stimulated with IL-7 ([2]; septic patients overall (n=19), CD3/CD28 + IL-7, p<0.005): 172%±77
change in TNF-α SFUs with IL-7 ([3]; CINS): no change
change in TNF-α SFUs with IL-7 ([3]; healthy subjects, p<0.01): significant decrease
effect of IL-7 on the number of TNF-α-producing cells ([3]; septic patients, LPS + IL-7): does not increase
tolerability of IL-7 test dose ([4]; 3 μg/kg ideal body weight intramuscularly, day 59 postinjury): well tolerated
onset of significant improvement of clinical status after initiation of IL-7 ([4]; 10 μg/kg every 3-4 days for 7 doses after test dose): 4 to 7 days
definitive closure of open wounds ([4]; after resolution of wound fungal infection, >700 cm^2): > 90%
absolute lymphocyte count reached ([4]; from a low of 600 lymphocytes/μL, upper limit of normal 3500): > 4000 lymphocytes/μL
increase of absolute lymphocyte count ([4]; fungal wound sepsis patient on IL-7): > 6 fold
tissue cultures after initiation of IL-7 therapy ([5]; by the fifth dose of IL-7): persistently negative cultures
time blood, wound and bone cultures stayed negative for bacterial or fungal pathogens after completing IL-7 therapy ([5]; human, in vivo): 40 days
improvement in the number of SARS-CoV-2 spike protein and nucleocapsid specific T cells [6]: over 30 fold
survival in a 2-hit animal model of fungal sepsis (fungal sepsis): increase survival
increase of ALCs in COVID-19 disease patients treated with IL-7 (lymphopenia in COVID-19): two- to three-fold
tolerability of IL-7 in COVID-19 disease patients (lymphopenia in COVID-19): well tolerated

— patent publication US20220091133A1, “METHODS AND ASSAYS FOR IMMUNE PHENOTYPING” (Washington University, priority 2020, published 2022)
